One may read the Ki as the equilibrium dissociation constant of an inhibitor or competing ligand from its target.

Drawing on US9611277B2 (Janssen Pharmaceutica NV, priority 2013, dated 2017), this text covers Ki for 22 molecules.

Assay [1] concerns the target human orexin 2 receptor (Homo sapiens (Human), UniProt O43614). Briefly: Human orexin 2 receptor radioligand binding. The following applies: human orexin 2 receptor; averages of 2-20 runs; read-out: hOX2 Ki. In outline:
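Ki derived from one-site competition IC50 using predetermined Kd of [3H]-EMPA, triplicate points, 2-20 runs averaged. Binding done on homogenized HEK293 cells stably expressing human orexin 2 receptor, DMSO ≤0.1%, with 10 μM almorexant defining nonspecific binding; filtered, washed, scintillation counted.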

Assay [2] has as its target human orexin 1 receptor (Homo sapiens, UniProt O43613). Briefly: Human orexin 1 receptor radioligand binding. The following applies: human orexin 1 receptor; averages of 2-20 runs; read-out: hOX1 Ki. In outline: (§1)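 Ki values derive from one-site competition IC50s corrected with the radioligand's predetermined Kd, triplicates per run, averaged over 2-20 runs. Cell homogenates (rat or human OX1R) compete against [^3H]-thiazolyl-oxadiazolyl-pyrrolidine methanone in PBS; 10 μM almorexant sets nonspecific binding; scintillation counting after washing.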

Assay [3] concerns the target rat orexin 1 receptor (Rattus norvegicus, UniProt P56718). Put plainly: Rat orexin 1 receptor radioligand binding. Conditions: rat orexin 1 receptor; averages of 2-20 runs; read-out: rOX1 Ki. In outline: as §1

The structures appear in SMILES notation.

Chain of human orexin 2 receptor (O43614 whole entry): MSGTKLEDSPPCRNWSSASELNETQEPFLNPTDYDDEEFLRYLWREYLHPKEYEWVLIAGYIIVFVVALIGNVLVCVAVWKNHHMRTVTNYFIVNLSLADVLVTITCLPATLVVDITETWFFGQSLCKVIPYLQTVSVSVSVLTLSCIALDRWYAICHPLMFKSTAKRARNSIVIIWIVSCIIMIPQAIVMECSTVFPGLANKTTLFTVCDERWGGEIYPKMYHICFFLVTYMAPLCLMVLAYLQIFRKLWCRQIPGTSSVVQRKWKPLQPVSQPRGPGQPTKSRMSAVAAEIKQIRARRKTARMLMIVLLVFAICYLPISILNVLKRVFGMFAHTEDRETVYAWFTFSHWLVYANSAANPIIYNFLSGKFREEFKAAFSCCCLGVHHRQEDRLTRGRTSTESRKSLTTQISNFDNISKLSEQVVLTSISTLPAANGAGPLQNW

Turning to `O=C(c1cccc(F)c1-c1ncccn1)N1C[C@H]2C[C@@H](N(CC3CC3)c3cnc(C(F)(F)F)cn3)[C@@H]1C2` [Example 211, ((1S,4S,6R)-6-((cyclopropylmethyl)(5-(trifluoromethyl)pyrazin-2-yl)amino)-2-azabicyclo[2.2.1]heptan-2-yl)(3-fluoro-2-(pyrimidin-2-yl)phenyl)methanone], the figures for the Ki in assay [1], in assay [2] and in assay [3] were 1300 nM, 16 nM and 31 nM, respectively.

As for `O=C(c1cccc(F)c1-n1nccn1)N1C[C@H]2C[C@@H](Nc3cnc(Cl)cn3)[C@@H]1C2` [Example 212, ((1S,4S,6R)-6-((5-chloropyrazin-2-yl)amino)-2-azabicyclo[2.2.1]heptan-2-yl)(3-fluoro-2-(2H-1,2,3-triazol-2-yl)phenyl)methanone], the Ki in assay [1] amounted to 607 nM; in assay [2], 9 nM; in assay [3], 14 nM.

In the case of `O=C(c1cc(F)ccc1-n1nccn1)N1CC2CC(Nc3cnc(Cl)cn3)C1C2` [Example 213, 1S,4S,6R)-6-((5-chloropyrazin-2-yl)amino)-2-azabicyclo[2.2.1]heptan-2-yl)(5-fluoro-2-(2H-1,2,3-triazol-2-yl)phenyl)methanone], the Ki in assay [1] was 871 nM; in assay [2] it was 31 nM; in assay [3] it was 39 nM.

Take `O=C(c1cccc(F)c1-c1ncccn1)N1C[C@H]2C[C@@H](Nc3cnc(Cl)cn3)[C@@H]1C2` [Example 214, ((1S,4S,6R)-6-((5-chloropyrazin-2-yl)amino)-2-azabicyclo[2.2.1]heptan-2-yl)(3-fluoro-2-(pyrimidin-2-yl)phenyl)methanone]: the results for the Ki in assay [1], in assay [2] and in assay [3] were 708 nM, 14 nM and 13 nM, respectively.

As to `O=C(c1ccccc1-c1ncccn1)N1C[C@H]2C[C@@H](Nc3cnc(Cl)cn3)[C@@H]1C2` [Example 215, ((1S,4S,6R)-6-((5-chloropyrazin-2-yl)amino)-2-azabicyclo[2.2.1]heptan-2-yl)(2-(pyrimidin-2-yl)phenyl)methanone], the Ki worked out at 435 nM in assay [1], 13 nM in assay [2] and 12 nM in assay [3].

With `Cc1cnc(N[C@@H]2C[C@H]3C[C@@H]2N(C(=O)c2cccc(F)c2-n2nccn2)C3)cn1` [Example 217, (3-fluoro-2-(2H-1,2,3-triazol-2-yl)phenyl)((1S,4S,6R)-6-((5-methylpyrazin-2-yl)amino)-2-azabicyclo[2.2.1]heptan-2-yl)methanone], the Ki was found to be 390 nM in assay [1], 29 nM in assay [2] and 12 nM in assay [3].

`Cc1cnc(N[C@@H]2C[C@H]3C[C@@H]2N(C(=O)c2cc(F)ccc2-n2nccn2)C3)cn1` [Example 218, (5-fluoro-2-(2H-1,2,3-triazol-2-yl)phenyl)((1S,4S,6R)-6-((5-methylpyrazin-2-yl)amino)-2-azabicyclo[2.2.1]heptan-2-yl)methanone]: the Ki worked out at 490 nM in assay [1], 49 nM in assay [2] and 31 nM in assay [3].

`Cc1cnc(N[C@@H]2C[C@H]3C[C@@H]2N(C(=O)c2cccc(F)c2-c2ncccn2)C3)cn1` [Example 219, (3-fluoro-2-(pyrimidin-2-yl)phenyl)((1S,4S,6R)-6-((5-methylpyrazin-2-yl)amino)-2-azabicyclo[2.2.1]heptan-2-yl)methanone]: the Ki in assay [1] was found to be 480 nM; in assay [2], 27 nM; in assay [3], 20 nM.

Regarding `Cc1cnc(N[C@@H]2C[C@H]3C[C@@H]2N(C(=O)c2ccccc2-c2ncccn2)C3)cn1` [Example 220, ((1S,4S,6R)-6-((5-methylpyrazin-2-yl)amino)-2-azabicyclo[2.2.1]heptan-2-yl)(2-(pyrimidin-2-yl)phenyl)methanone], the Ki was found to be 284 nM in assay [1], 17 nM in assay [2] and 11 nM in assay [3].

In the case of `O=C(c1cccc(F)c1-n1nccn1)N1C[C@H]2C[C@@H](Nc3ncc(C(F)(F)F)cn3)[C@@H]1C2` [Example 223, (3-fluoro-2-(2H-1,2,3-triazol-2-yl)phenyl)((1S,4S,6R)-6-((5-(trifluoromethyl)pyrimidin-2-yl)amino)-2-azabicyclo[2.2.1]heptan-2-yl)methanone], the Ki in assay [1] came to 619 nM; in assay [2], 6 nM; in assay [3], 11 nM.

Consider `O=C(c1ccc(F)cc1-n1nccn1)N1C[C@H]2C[C@@H](Nc3ncc(C(F)(F)F)cn3)[C@@H]1C2` [Example 224, (4-fluoro-2-(2H-1,2,3-triazol-2-yl)phenyl)((1S,4S,6R)-6-((5-(trifluoromethyl)pyrimidin-2-yl)amino)-2-azabicyclo[2.2.1]heptan-2-yl)methanone], for which the inhibition constant (Ki) in assay [1] is 1900 nM; in assay [2], 33 nM; in assay [3] it was 37 nM.

`O=C(c1cc(F)ccc1-n1nccn1)N1C[C@H]2C[C@@H](Nc3ncc(C(F)(F)F)cn3)[C@@H]1C2` [Example 225, (5-fluoro-2-(2H-1,2,3-triazol-2-yl)phenyl)((1S,4S,6R)-6-((5-(trifluoromethyl)pyrimidin-2-yl)amino)-2-azabicyclo[2.2.1]heptan-2-yl)methanone]: the Ki in assay [1] amounted to 800 nM; in assay [2], 16 nM; in assay [3], 20 nM.

As for `O=C(c1c(F)cccc1-n1nccn1)N1C[C@H]2C[C@@H](Nc3ncc(C(F)(F)F)cn3)[C@@H]1C2` [Example 226, (2-fluoro-6-(2H-1,2,3-triazol-2-yl)phenyl)((1S,4S,6R)-6-((5-(trifluoromethyl)pyrimidin-2-yl)amino)-2-azabicyclo[2.2.1]heptan-2-yl)methanone], the values for the inhibitory constant (Ki) in assay [1], in assay [2] and in assay [3] were 874 nM, 19 nM and 17 nM, respectively.

In the case of `O=C(c1ccc(F)cc1-c1ncccn1)N1C[C@H]2C[C@@H](Nc3ncc(C(F)(F)F)cn3)[C@@H]1C2` [Example 227, (4-fluoro-2-(pyrimidin-2-yl)phenyl)((1S,4S,6R)-6-((5-(trifluoromethyl)pyrimidin-2-yl)amino)-2-azabicyclo[2.2.1]heptan-2-yl)methanone], the Ki in assay [1] was 3100 nM; in assay [2], 13 nM; in assay [3] it was 12 nM.

As to `O=C(c1cc(F)ccc1-c1ncccn1)N1C[C@H]2C[C@@H](Nc3ncc(C(F)(F)F)cn3)[C@@H]1C2` [Example 228, (5-fluoro-2-(pyrimidin-2-yl)phenyl)((1S,4S,6R)-6-((5-(trifluoromethyl)pyrimidin-2-yl)amino)-2-azabicyclo[2.2.1]heptan-2-yl)methanone], the values for the Ki in assay [1], in assay [2] and in assay [3] were 544 nM, 9 nM and 11 nM, respectively.

`O=C(c1c(F)cccc1-c1ncccn1)N1C[C@H]2C[C@@H](Nc3ncc(C(F)(F)F)cn3)[C@@H]1C2` [Example 229, (2-fluoro-6-(pyrimidin-2-yl)phenyl)((1S,4S,6R)-6-((5-(trifluoromethyl)pyrimidin-2-yl)amino)-2-azabicyclo[2.2.1]heptan-2-yl)methanone]: the figures for the Ki in assay [1], in assay [2] and in assay [3] were 724 nM, 11 nM and 9 nM, respectively.

In the case of `O=C(c1ccccc1-c1ncccn1)N1C[C@H]2C[C@@H](Nc3ncc(C(F)(F)F)cn3)[C@@H]1C2` [Example 230, (2-(pyrimidin-2-yl)phenyl)((1S,4S,6R)-6-((5-(trifluoromethyl)pyrimidin-2-yl)amino)-2-azabicyclo[2.2.1]heptan-2-yl)methanone], the Ki in assay [1] was determined as 470 nM; in assay [2] it was 4 nM; in assay [3], 4 nM.

For `O=C(c1ccccc1-c1ncc(F)cn1)N1C[C@H]2C[C@@H](Nc3ncc(C(F)(F)F)cn3)[C@@H]1C2` [Example 231, (2-(5-fluoropyrimidin-2-yl)phenyl)((1S,4S,6R)-6-((5-(trifluoromethyl)pyrimidin-2-yl)amino)-2-azabicyclo[2.2.1]heptan-2-yl)methanone], the Ki amounted to 1300 nM in assay [1], 12 nM in assay [2] and 9 nM in assay [3].

As for `O=C(c1c(F)cccc1-c1ncco1)N1C[C@H]2C[C@@H](Nc3ncc(C(F)(F)F)cn3)[C@@H]1C2` [Example 232, (2-fluoro-6-(oxazol-2-yl)phenyl)((1S,4S,6R)-6-((5-(trifluoromethyl)pyrimidin-2-yl)amino)-2-azabicyclo[2.2.1]heptan-2-yl)methanone], the Ki in assay [1] is 1350 nM; in assay [2] it was 25 nM; in assay [3] it was 24 nM.

With `O=C(c1cccc(F)c1-n1nccn1)N1C[C@H]2C[C@@H](Nc3ncc(Cl)cn3)[C@@H]1C2` [Example 234, ((1S,4S,6R)-6-((5-chloropyrimidin-2-yl)amino)-2-azabicyclo[2.2.1]heptan-2-yl)(3-fluoro-2-(2H-1,2,3-triazol-2-yl)phenyl)methanone], the Ki was found to be 827 nM in assay [1], 12 nM in assay [2] and 17 nM in assay [3].

As to `O=C(c1cc(F)ccc1-n1nccn1)N1C[C@H]2C[C@@H](Nc3ncc(Cl)cn3)[C@@H]1C2` [Example 235, ((1S,4S,6R)-6-((5-chloropyrimidin-2-yl)amino)-2-azabicyclo[2.2.1]heptan-2-yl)(5-fluoro-2-(2H-1,2,3-triazol-2-yl)phenyl)methanone], the figures for the Ki in assay [1], in assay [2] and in assay [3] were 1300 nM, 41 nM and 36 nM, respectively.

On to `O=C(c1cccc(F)c1-c1ncccn1)N1C[C@H]2C[C@@H](Nc3ncc(Cl)cn3)[C@@H]1C2` [Example 236, ((1S,4S,6R)-6-((5-chloropyrimidin-2-yl)amino)-2-azabicyclo[2.2.1]heptan-2-yl)(3-fluoro-2-(pyrimidin-2-yl)phenyl)methanone], for which the Ki in assay [1] was found to be 1020 nM; in assay [2], 9 nM; in assay [3], 10 nM.
